According to patent US8809368B2, “Compounds affecting gap junction activity” (Kansas State University Research Foundation, priority 2006, dated 2014):

Assays:
[1] = test system: transformed human mammary epithelial cells (HMEC); assay: Cell proliferation, HMEC; assay type: cell-based
Method: There was no effect seen on the cell proliferation in transformed human mammary epithelial cells (HMEC, data not shown).
MTT assay: This assay is done to measure cell proliferation and viability. Yellow MTT (3-(4,5-Dimethylthiazol-2-yl)-2,5-diphenyltetrazolium bromide, a tetrazole) is reduced to purple crystals, formazan in the mitochondria of living cells. A solubilization solution is added to dissolve the insoluble purple formazan product into a colored solution. The absorbance of this colored solution can be measured by a spectrophotometer. T47 D cells (20,000) were grown in 96-well plate and dosed with 10, 100, 200, 500 nM of PQ1 compound in 100 μl of complete media for 24 hours. MTT (20 μl) was added to the cells and purple formazan crystals were observed after 90 minutes. A solubilization solution (0.35 N HCl) was added to dissolve the formazan and the absorbance was measured at 595 nm wavelength with a background wavelength 690 nm by a spectrophotometer.

PKCγ = assay: Expression of PKCγ; assay type: cell-based; conditions: 100, 200, 300 and 500 nM, 24 hours
Method: However, PQ3 has an opposite effect on mammary cancer cell lines. […] A summary of PQ-mediated GJIC activity and colony growth in breast and colon cancer cells is presented in Tables 1, 2, and 3, as well as FIGS. 10-13. In FIG. 10, SW620 cells were dosed for 24 hours with PQ1 at 100, 200, 300, and 500 nM. The gap junction activity was measured as a percent of control, as previously described. It was seen that all concentrations on PQ1 increased the gap junction activity in SW620 colon cancer cells as compared to the control. In FIG. 11, the effect of PQ1 on the expression of PKCγ was studied at concentrations of 100, 200, 300 and 500 nM PQ1 for 24 hours. It is seen in FIG. 11 that PQ1 has no effect on the expression of PKCγ at the levels tested. In FIGS. 12 and 13, the effect of PQ1 on the colony growth of SW620 colon cancer cells was measured with 1-100 nM PQ1 (FIG. 12) and 10 uM PQ1 (FIG. 13).

[2] = test system: human primary epithelial cells (MEC, normal cells); assay: Scrape load/dye transfer GJIC assay, primary epithelial cells (MEC); assay type: cell-based; conditions: compared to its controls
Method: Intercellular communication in many organs is maintained via GJIC. Several GJIC enhancers have been reported; however, an effective clinical drug targeting gap junction is not available at this time. The effect of PQ1 on the GJIC activity in T47D breast cancer cells was tested. […] Conversely, PQ1 has no effect on GJIC activity of human primary epithelial cells (MEC, normal cells) compared to its controls (data not shown). The distance of dye transfer from section cut to the farthest cells with dye was measured. […] MECs have uniform uptake of Lucifer yellow. This is due to the existing high level of gap junction activity of these normal cells.
Gap Junction Activity. For scrape load/dye transfer (SL/DT) assay, cells were grown to 90% confluency on cover slips, dosed with 10, 50, 100 and 200 nM of TCDD for 40 minutes. After that cells were washed three times with PBS. The 2.5 μl of 1% (w/v) Lucifer yellow and 0.75% (w/v) of Rhodamine dextran was mixed and added in the center of the coverslip. Two cuts crossing each other in the center of the coverslip were made. After three minutes, cells were washed three times with PBS and incubated at 37° C. in tissue culture media for 20 minutes. The cells were then washed with PBS three times and fixed in 2.5% paraformaldehyde for 10 minutes. Cells were mounted on a slide, sealed and visualized under a fluorescence microscope at 10× objective.

Cx32 = assay: Western blot of Cx32 in T47D cells; assay type: cell-based, human; conditions: 10, 100, 200 and 500 nM, 24 hours
Method: T47D cells were dosed with PQ1 for 24 hours. The Western blot analysis was performed as described in Materials and Methods. Whole cell extract was analyzed for Cx 43, Cx32, and Cx26. Experiment was performed at least three times.
Furthermore, whole cell extract of PQ1 treatment was analyzed for the changes in gap junctional proteins, connexins. Cells were treated with 10, 100, 200, and 500 nM PQ1 for 24 hours. Western blot analysis was performed against Cx26, Cx32, and Cx43 (FIG. 17). […] Anti-tubulin was used as a loading control.
Western Blot Analysis. Cells were grown in serum supplemented RPMI media until they were 90% confluent in 75 cm^2 flasks. Cells were kept in starving media containing phenol red-free DMEM with 5% charcoal dextran stripped serum, overnight. Cells were dosed with 0, 10, 100, 200 and 500 nM of PQ1 for 24 hours. Cells were washed three times with cold PBS and then were harvested using lysis buffer (20 mM Tris pH 7.5, 0.5 mM EDTA, 0.5 mM EGTA, 0.5% Triton X-100) with 1:1000 dilution of protease inhibitors (Sigma-Aldrich, Saint Louis, Mo.). Cell lysate was sonicated and centrifuged at 13,000 rpm for 30 minutes at 4° C. […] Western blots were detected by enhanced chemiluminescence detection reagents (Pierce, Rockford, Ill., USA).

MDA-MB-231 = assay: Gap junction intercellular communication, MDA-MB-231 cells; assay type: cell-based, human; conditions: Table 1

| Structure (SMILES) | cell proliferation [1] | expression of PKCγ (PKCγ) | GJIC activity [2] | Cx32 expression (Cx32) | effect on gap junction intercellular communication (MDA-MB-231) |
| --- | --- | --- | --- | --- | --- |
| COc1cc(NCCCN)c2nccc(C)c2c1Oc1cccc(C(F)(F)F)c1.O=C(O)CCC(=O)O [PQ1, 6-Methoxy-8-[(3-aminopropyl)amino]-4-methyl-5-(3-trifluoromethylphenyloxy) quinoline succinic acid] | no effect | no effect | no effect | no effect | – |
| COc1cc(N)c2nccc(C)c2c1Oc1cccc(C(F)(F)F)c1 [PQ3, 8-Amino-6-methoxy-4-methyl-5-(3-trifluoromethylphenyloxy)quinoline] | – | – | – | – | No effect |
